# In patent US7179823B1, “5-membered n-heterocyclic compounds with hypoglycemic and hypolipidemic activity” (Takeda Pharmaceutical Company Limited, priority 1999, dated 2007):
row,Compound,melting point
1,"O=C(O)CCc1cn(Cc2ccc(OCc3csc(-c4ccccn4)n3)cc2)cc1-c1ccccc1 [Example 32, 3-[4-phenyl-1-[4-[2-(2-pyridyl)-4-thiazolylmethoxy)benzyl]-3-pyrrolyl]propionic acid]",117 to 118 °C
2,"CCOc1cc(Cn2cc(CCC(=O)O)c(-c3ccccc3)c2)cc(OCc2csc(-c3cccs3)n2)c1 [Example 276, 3-[1-[3-ethoxy-5-[2-(2-thienyl)-4-thiazolylmethoxy)benzyl]-4-phenyl-3-pyrrolyl]propionic acid]",104 to 105 °C
3,"CCOc1nn(Cc2cc(OCc3ccc4ccccc4n3)no2)cc1CCC(=O)O [Example 242, 3-[3-ethoxy-1-[3-(2-quinolylmethoxy)-5-isoxazolylmethyl]-1H-pyrazol-4-yl]propionic acid]",123 to 124 °C
4,"Cc1oc(-c2ccccc2)nc1COc1ccc(CCn2cc(CCC(=O)O)c(-c3ccccc3)n2)cc1 [Example 116, 3-[1-[2-[4-(5-methyl-2-phenyl-4-oxazolylmethoxy)phenyl]ethyl]-3-phenyl-1H-pyrazol-4-yl]propionic acid]",85 to 86 °C
5,"O=C(O)CCc1cn(Cc2ccc(OCc3ccccn3)cc2)cc1-c1ccccc1 [Example 11, 3-[4-phenyl-1-[4-(2-pyridylmethoxy)benzyl]-3-pyrrolyl]propionic acid]",109 to 110 °C
6,"O=C(O)CCc1cn(Cc2ccc(OCc3ccccc3)cc2)cc1-c1ccccc1 [Example 10, 3-[1-(4-benzyloxybenzyl)-4-phenyl-3-pyrrolyl]propionic acid]",130 to 131 °C
7,"CCOC(=O)c1cn(Cc2ccc(OCc3ccccc3)cc2)nc1-c1ccccc1 [Example 76, ethyl 1-(4-benzyloxybenzyl)-3-phenyl-1H-pyrazole-4-carboxylate]",102 to 103 °C
8,"O=C(O)CCc1cn(Cc2ccc(OCc3ccsc3)cc2)cc1-c1ccccc1 [Example 22, 3-[4-phenyl-1-[4-(3-thienylmethoxy)benzyl]-3-pyrrolyl]propionic acid]",118 to 119 °C
9,"CCOc1nn(Cc2ccc(OCc3ccc4ccccc4n3)cc2)cc1CCC(=O)O [Example 209, 3-[3-ethoxy-1-[4-(2-quinolylmethoxy)benzyl]-1H-pyrazol-4-yl]propionic acid]",140 to 141 °C
10,"CCOc1nn(Cc2ccc(OCc3nc(-c4ccccc4)ccc3Cl)cc2)cc1CCC(=O)O [Example 244, 3-[1-[4-(3-chloro-6-phenyl-2-pyridylmethoxy)benzyl]-3-ethoxy-1H-pyrazol-4-yl]propionic acid]",120 to 121 °C
11,"CCOc1nn(Cc2ccc(OCc3nc(-c4ccccc4)oc3C)cn2)cc1CCC(=O)O [Example 258, 3-[3-ethoxy-1-[5-(5-methyl-2-phenyl-4-oxazolylmethoxy)-2-pyridylmethyl]-1H-pyrazol-4-yl]propionic acid]",133 to 134 °C
12,"CCCc1c(CCC(=O)O)cnn1Cc1ccc(OCc2nc(-c3ccccc3)oc2C)cc1 [Example 112, 3-[1-[4-(5-methyl-2-phenyl-4-oxazolylmethoxy)benzyl]-5-propyl-1H-pyrazol-4-yl]propionic acid]",158 to 159 °C
13,"Cc1oc(-c2ccccc2)nc1COc1ccc(Cn2cc(CCCC(=O)O)c(-c3ccccc3)n2)cc1 [Example 96, 4-[1-[4-(5-methyl-2-phenyl-4-oxazolylmethoxy)benzyl]-3-phenyl-1H-pyrazole-4-yl]butanoic acid]",118 to 119 °C
14,"O=C(O)CCc1cn(Cc2ccc(OCc3ccoc3)cc2)cc1-c1ccccc1 [Example 18, 3-[1-[4-(3-furylmethoxy)benzyl]-4-phenyl-3-pyrrolyl]propionic acid]",110 to 111 °C
15,"O=C(O)CCc1cn(Cc2ccc3cc(OCc4cccnc4)ccc3c2)cc1-c1ccccc1 [Example 58, 3-[4-phenyl-1-[6-(3-pyridylmethoxy)-2-naphthylmethyl]-3-pyrrolyl]propionic acid]",158 to 159 °C
16,"Cc1oc(-c2ccccc2)nc1COc1ccc(Cn2cc(C(=O)O)c(C(C)C)n2)cc1 [Example 106, 3-isopropyl-1-[4-(5-methyl-2-phenyl-4-oxazolylmethoxy)benzyl]-1H-pyrazol-4-carboxylic acid]",194 to 195 °C
17,"O=C(O)CCc1cn(Cc2ccc(OCc3ccc(-c4ccccc4)nc3)cc2)nc1-c1ccccc1 [Example 288, 3-[3-phenyl-1-[4-(6-phenyl-3-pyridylmethoxy)benzyl]-1H-pyrazol-4-yl]propionic acid]",155 to 156 °C
18,"CCOc1nn(Cc2cccc(OCc3nc(-c4ccccc4)oc3C)n2)cc1CCC(=O)O [Example 223, 3-[3-ethoxy-1-[6-(5-methyl-2-phenyl-4-oxazolylmethoxy)-2-pyridylmethyl]-1H-pyrazol-4-yl]propionic acid]",144 to 145 °C
19,"CCOc1nn(Cc2ccc(OCCn3ncc4ccccc4c3=O)cc2)cc1CCC(=O)O [Example 220, 3-[3-ethoxy-1-[4-[2-[1-oxophthalazin-2(1H)-yl]ethoxy]benzyl]-1H-pyrazol-4-yl]propionic acid]",152 to 153 °C
20,"CCOC(=O)c1cn(Cc2ccc(OCc3ccccc3)cc2)nc1-c1ccc(F)cc1 [Example 280, ethyl 1-(4-benzyloxybenzyl)-3-(4-fluorophenyl)-1H-pyrazole-4-carboxylate]",103 to 104 °C
21,"CCOC(=O)CCc1cn(Cc2cccnc2OCc2csc(-c3ccccc3)n2)nc1-c1ccccc1 [Example 299, ethyl 3-[3-phenyl-1-[2-(2-phenyl-4-thiazolylmethoxy)-3-pyridylmethyl]-1H-pyrazol-4-yl]propionate]",88 to 89 °C
22,"CCOc1cc(Cn2cc(CCC(=O)O)c(-c3ccccc3)c2)cc(OCc2nc(-c3ccccc3)oc2C)c1 [Example 272, 3-[1-[3-ethoxy-5-(5-methyl-2-phenyl-4-oxazolylmethoxy)benzyl]-4-phenyl-3-pyrrolyl]propionic acid]",126 to 127 °C
23,"Cc1oc(-c2ccccc2)nc1COc1ccc(Cn2cc(CCC(=O)O)cn2)cc1 [Example 142, 3-[1-[4-(5-methyl-2-phenyl-4-oxazolylmethoxy)benzyl]-1H-pyrazol-4-yl]propionic acid]",124 to 125 °C
24,"COc1cc(COc2nn(Cc3ccc(Oc4ccccc4)cc3)cc2C(N)=O)ccc1OCc1nc(-c2ccco2)oc1C [Example 323, 3-[4-[2-(2-furyl)-5-methyl-4-oxazolylmethoxy]-3-methoxybenzyloxy]-1-(4-phenoxybenzyl)-1H-pyrazole-4-carbamide]",105 to 106 °C
25,"CCOc1nn(Cc2ccc(OCc3nc(-c4ccco4)oc3C)nc2)cc1CC(=O)O [Example 264, 3-ethoxy-1-[6-[2-(2-furyl)-5-methyl-4-oxazolylmethoxy]-3-pyridylmethyl]-1H-pyrazol-4-ylacetic acid]",155 to 156 °C

# Second part, the compound after the results:
row,melting point,Compound
1,58 to 59 °C,"COC(=O)Cc1cn(Cc2ccc(OCc3ccccc3)cc2)nc1-c1ccc(F)cc1 [Example 318, methyl [1-(4-benzyloxybenzyl)-3-(4-fluorophenyl)-1H-pyrazol-4-yl]acetate]"
2,118 to 119 °C,"O=C(O)CCc1cn(Cc2ccc(OCc3csc(-c4cccnc4)n3)cc2)cc1-c1ccccc1 [Example 46, 3-[4-phenyl-1-[4-[2-(3-pyridyl)-4-thiazolylmethoxy]benzyl]-3-pyrrolyl]propionic acid]"
3,121 to 122 °C,"CCOc1nn(Cc2ccc(OCc3csc(-c4ccccc4)n3)nc2)cc1CCC(=O)O [Example 254, 3-[3-ethoxy-1-[6-(2-phenyl-4-thiazolylmethoxy)-3-pyridylmethyl]-1H-pyrazol-4-yl]propionic acid]"
4,166 to 167 °C,"O=C(O)CCc1cn(Cc2ccc(OCc3ccc4ccccc4n3)nc2)nc1-c1ccccc1 [Example 298, 3-[3-phenyl-1-(6-(2-quinolylmethoxy)-3-pyridylmethyl]-1H-pyrazol-4-yl]propionic acid]"
5,225 to 226 °C,"Cn1c(COc2ccc(Cn3cc(CCC(=O)O)c(-c4ccccc4)n3)cc2)nc2ccccc21 [Example 292, 3-[1-[4-(1-methyl-1H-benzimidazol-2-ylmethoxy)benzyl]-3-phenyl-1H-pyrazol-4-yl]propionic acid]"
6,157 to 158 °C,"Cc1sc(-c2ccccc2)nc1COc1ccc(Cn2cc(CCC(=O)O)c(-c3ccccc3)c2)cc1 [Example 28, 3-[1-[4-(5-methyl-2-phenyl-4-thiazolylmethoxy)benzyl]-4-phenyl-3-pyrrolyl]propionic acid]"
7,143 to 144 °C,"O=C(O)CCc1cn(Cc2ccc3cc(OCc4ccccc4F)ccc3c2)cc1-c1ccccc1 [Example 56, 3-[1-[6-(2-fluorobenzyloxy)-2-naphthylmethyl]-4-phenyl-3-pyrrolyl]propionic acid]"
8,91 to 92 °C,"O=C(O)CCc1cn(Cc2ccc(OCc3cccc(-c4cnccn4)c3)cc2)cc1-c1ccccc1 [Example 36, 3-[4-phenyl-1-[4-[3-(2-pyrazinyl)benzyloxy]benzyl]-3-pyrrolyl]propionic acid]"
9,148 to 149 °C,"Cc1oc(-c2ccccc2)nc1CCOc1ccc(Cn2cc(CC(=O)O)c(-c3ccccc3)n2)cn1 [Example 314, [1-[6-[2-(5-methyl-2-phenyl-4-oxazolyl)ethoxy]-3-pyridylmethyl]-3-phenyl-1H-pyrazol-4-yl]acetic acid]"
10,137 to 138 °C,"O=C(O)CCc1cn(Cc2ccc(OCc3csc(-c4cnccn4)n3)cc2)cc1-c1ccccc1 [Example 16, 3-[4-phenyl-1-[4-[2-(2-pyrazinyl)-4-thiazolylmethoxy]benzyl]-3-pyrrolyl]propionic acid]"
11,163 to 164 °C,"Cc1ncccc1COc1ccc2cc(Cn3cc(CCC(=O)O)c(-c4ccccc4)c3)ccc2c1 [Example 60, 3-[1-[6-(2-methyl-3-pyridylmethoxy)-2-naphthylmethyl]-4-phenyl-3-pyrrolyl]propionic acid]"
12,95 to 96 °C,"CCOc1nn(Cc2ccc(OCc3cccc(-c4ccccc4)n3)cc2)cc1CCC(=O)O [Example 246, 3-[3-ethoxy-1-[4-(6-phenyl-2-pyridylmethoxy)benzyl]-1H-pyrazol-4-yl]propionic acid]"
